Experimental data as given in patent publication US12030868B2, “Prodrugs of CGRP antagonists” (Pfizer Ireland Pharmaceuticals, priority 2018, dated 2024).
Counter-ions that a name gives are not always drawn.

Experiments:
[1] = Caco-2 permeability assay; format: in vitro ADME, human; details: human, Caco-2 monolayer, donor 10 μM, 37° C., pH 7.4; for Papp A→B at 90 min, 10 μM: apical to basolateral; for Papp B→A at 90 min, 10 μM: basolateral to apical
Procedure: (§1) Caco-2 Permeability Assay
(§2) The Caco-2 cells are cultured to confluency, trypsinized and seeded onto a filter transwell insert at a density of ^˜32,000 cells/well in DMEM cell culture medium. Cells are grown in a humidified atmosphere of 5% CO2 at 37° C. Following an overnight attachment period (24 h after seeding), the cell medium is replaced with fresh medium in both the apical and basolateral compartments every other day. The cell monolayers are used for transport studies 21 days post seeding after measuring the TEER values ([…]). The apical sides and basolateral sides are washed consecutively with HBSS 2.5% (v/v), HEPES (pH 7.4) or HBSS 2.5% (v/v), HEPES 10% (v/v), and Fetal Bovine Serum (pH 7.4) at 37° C. in an incubator under an atmosphere of 5% CO2.
(§3) Donor working solution is prepared by dilution of DMSO stock of test article or positive control with transport media to 10 μM.
(§4) For A→B directional transport, the donor working solution (with test article or positive control, with or without Pgp inhibitor) is added to the apical (A) compartment and the transport media as receiver working solution is added to the basolateral (B) compartment. For B→A directional transport, the donor working solution (with positive control or test article, with or without Pgp inhibitor) is added to the basolateral (B) compartment and transport media as receiver working solution is added to the apical (A) compartment.
(§5) The cells are incubated in a humidified atmosphere of 5% CO2 at 37° C. for 90 minutes.
(§6) At the end of the incubation, samples are taken from both donor and receiver compartments and transferred into 96-well assay plates containing internal standard solution (IS) in each well. After centrifugation, the supernatant solutions are transferred to clean 96 well plates and analyzed by LC-MS/MS. The MS detection is performed using a Sciex API 4000 instrument. Each compound is analyzed by reversed phase HPLC.
(§7) The parameters Papp (apparent permeability) and efflux ratio are calculated as follows: Papp=(dQ/dt)×(1/C0)×(1/A) Efflux ratio=Papp[B→A]/Papp[A→B] • where dQ/dt is the permeability rate, C0 is the initial concentration in the donor compartment, and A is the surface area of the cell monolayer (0.33 cm^2). The Papp value is a rate measured in cm/s.
(§8) Comparing the efflux ratios generated in the presence and absence of a Pgp inhibitor identifies whether the test article is a Pgp substrate.
(§9) Recovery is calculated as follows: % Recovery=(Total compound mass in donor and receiver compartments at the end of the incubation/Initial compound mass in the donor compartment)×100.

Caco-2 cells = assay: Caco-2 permeability assay; format: in vitro ADME, human; details: Caco-2 monolayer, donor 10 μM, 90 minutes, 37° C., pH 7.4; for Papp A-B: apical to basolateral; for Papp B-A: basolateral to apical
Procedure: as §1, §2, §3, §4, §5, §6, §7, §8, §9

Row | Compound | Papp A→B at 90 min, 10 μM [1] [×10⁻⁶ cm/s] | Papp B→A at 90 min, 10 μM [1] [×10⁻⁶ cm/s] | Papp A-B (Caco-2 cells) [×10⁻⁶ cm/s] | Papp B-A (Caco-2 cells) [×10⁻⁶ cm/s]
1 | Cc1cc(C[C@@H](NC(=O)N2CCC(c3cc4ccccc4[nH]c3=O)CC2)C(=O)N2CCN(C3CCN(C)CC3)CC2)cc2cn[nH]c12 [BHV-3500, N-[(2R)-3-(7-methyl-1H-indazol-5-yl)-1-[4-(1-methylpiperidin-4-yl)piperazin-1-yl]-1-oxopropan-2-yl]-4-(2-oxo-1,2-dihydroquinolin-3-yl)piperidine-1-carboxamide, reference compound] | < 0.05 |  |  | 
2 | Cc1cc(C[C@@H](NC(=O)N2CCC(c3cc4ccccc4n(COC(=O)C(C)(C)C)c3=O)CC2)C(=O)N2CCN(C3CCN(C)CC3)CC2)cc2cn(COC(=O)C(C)(C)C)nc12 [Example 4, {5-[(2R)-2-{[4-(1-{[(2,2-dimethylpropanoyl)oxy]methyl}-2-oxo-1,2-dihydroquinolin-3-yl)piperidine-1-carbonyl]amino}-3-[4-(1-methylpiperidin-4-yl)piperazin-1-yl]-3-oxopropyl]-7-methyl-2H-indazol-2-yl}methyl 2,2-dimethylpropanoate trifluoroacetate] | 5.1 | 2.9 |  | 
3 | Cc1cc2cc3cn(nc13)COC(=O)C(C)(C)C/C=C\CC(C)(C)C(=O)OCn1c(=O)c(cc3ccccc31)C1CCN(CC1)C(=O)N[C@@H](C(=O)N1CCN(C3CCN(C)CC3)CC1)C2 [Example 10, (16Z,31R)-14,14,19,19,27-pentamethyl-31-[4-(1-methylpiperidin-4-yl)piperazine-1-carbonyl]-12,21-dioxa-10,23,32,34,40-pentaazahexacyclo[32.2.2.1^2,10.1^23,26.1^25,29.0^4,9]hentetraconta-2,4(9),5,7,16,24,26(40),27,29(39)-nonaene-13,20,33,41-tetrone] | 0.31 | 28.9 |  | 
4 | Cc1cc2cc3cn(nc13)COC(=O)C1(C/C=C\CC3(CC3)C(=O)OCn3c(=O)c(cc4ccccc43)C3CCN(CC3)C(=O)N[C@@H](C(=O)N3CCN(C4CCN(C)CC4)CC3)C2)CC1 [Example 13, (16′Z,31′S)-27′-methyl-31′-[4-(1-methylpiperidin-4-yl)piperazine-1-carbonyl]dispiro[cyclopropane-1,14′-[12,21]dioxa-[10,23,32,34,40]pentaazahexacyclo[32.2.2.1^2,10.1^23,26.1^25,29.0^4,9]hentetracontane-19′,1″-cyclopropane]-2′,4′(9′),5′,7′,16′,24′,26′(40′),27′,29′(39′)-nonaene-13′,20′,33′,41′-tetrone trifluoroacetate] | 0.839 | 20 |  | 
5 | CCCCCCN(C)C(=O)OCn1cc2cc(C[C@@H](NC(=O)N3CCC(c4cc5ccccc5n(COC(=O)N(C)CCCCCC)c4=O)CC3)C(=O)N3CCN(C4CCN(C)CC4)CC3)cc(C)c2n1 [Example 93, {5-[(2R)-2-({4-[1-({[hexyl(methyl)carbamoyl]oxy}methyl)-2-oxo-1,2-dihydroquinolin-3-yl]piperidine-1-carbonyl}amino)-3-[4-(1-methylpiperidin-4-yl)piperazin-1-yl]-3-oxopropyl]-7-methyl-2H-indazol-2-yl}methyl N-hexyl-N-methylcarbamate] | 1.13 | 10.7 |  | 
6 | Cc1cc2cc3cn(nc13)COC(=O)C(C)(C)CCCCC(C)(C)C(=O)OCn1c(=O)c(cc3ccccc31)C1CCN(CC1)C(=O)N[C@@H](C(=O)N1CCN(C3CCN(C)CC3)CC1)C2 [Example 125, (31R)-14,14,19,19,27-pentamethyl-31-[4-(1-methylpiperidin-4-yl)piperazine-1-carbonyl]-12,21-dioxa-10,23,32,34,40-pentaazahexacyclo[32.2.2.1^2,10.1^23,26.1^25,29.0^4,9]hentetraconta-2,4,6,8,24,26(40),27,29(39)-octaene-13,20,33,41-tetrone] | 2.2 | 13.9 |  | 
7 | (R)-(3-(1-(3-(7-methyl-2-(octanoyloxymethyl)-2H-indazol-5-yl)-1-(4-(1-methylpiperidin-4-yl)piperazin-1-yl)-1-oxopropan-2-ylcarbamoyl)piperidin-4-yl)-2-oxoquinolin-1(2H)-yl)methyl octanoate compound with (R)-heptyl 7-methyl-5-(3-(4-(1-methylpiperidin-4-yl)piperazin-1-yl)-2-(4-(1-(octanoyloxymethyl)-2-oxo-1,2-dihydroquinolin-3-yl)piperidine-1-carboxamido)-3-oxopropyl)-1H-indazole-1-carboxylate (1:1) [Example 59] |  |  | 2.2 | 7.6
8 | (R)-(7-methyl-5-(3-(4-(1-methylpiperidin-4-yl)piperazin-1-yl)-3-oxo-2-(4-(2-oxo-1,2-dihydroquinolin-3-yl)piperidine-1-carboxamido)propyl)-1H-indazol-1-yl)methyl heptanoate compound with (R)-(7-methyl-5-(3-(4-(1-methylpiperidin-4-yl)piperazin-1-yl)-3-oxo-2-(4-(2-oxo-1,2-dihydroquinolin-3-yl)piperidine-1-carboxamido)propyl)-2H-indazol-2-yl)methyl heptanoate (1:1) [Example 61] |  |  | 2.5 | 1.96
